The text below walks through data of patent US7078389B2, “Chemically modified oligonucleotide for site-directed mutagenesis” (priority 1993, dated 2006).

“Also recorded” adds a separate entry of the source. A value given as a limit tells only on which side of the number the result lay.

Data set [1] has as its system supF gene of the lambda vector. Nature of the data set: Sequence analysis of supF mutants from lambda vector. Set-up: species or system E. coli. The note with it: plus UVA. From the text:
FIGS. 2A and 2B show a sequence analysis of targeted mutagenesis in the supF gene by the psoralen-linked triplex-forming oligonucleotide (pso-AG10). In FIG. 2A, mutations produced by pso-AG10 and UVA are indicated above each base pair, with the listed base representing the change from the sequence in the top strand. […] The asterisk indicates the targeted base pair at position 167. DNA sequence data was obtained by automated methods after polymerase chain reaction amplification of the supF genes from lambda phage plaques in accordance with the method of Connell et al., Biotechniques 5:342 (1987). FIG. 2B is a compilation of mutations induced in supF by 8-methoxypsoralen and UVA in mouse L-cells using the lambda supF vector of FIG. 1 or generated using a plasmid shuttle vector in monkey Vero cells in accordance with the method of Bredberg and Nachmansson, Carcinogenesis 8:1923 (1987), to compare the mutations produced in supF by free psoralen with those produced by the triplex forming oligonucleotide AG10.
To obtain direct evidence for targeted mutagenesis, a series of independent mutants produced in the supF gene of the lambda vector by pso-AG10 and UVA were sequenced. […] The A:T base pair at 167 forms a triplet with the 5′ adenine to which the psoralen is tethered in AG10, and so it is the closest base pair to the psoralen. The overwhelming predominance of the T:A to A:T transversion at this site is consistent with the mutagenic action of psoralen, which tends to form adducts at pyrimidines, and especially at thymidines. It should be noted that these mutations are independent and none of the mutations represent siblings because each packaged lambda particle gives rise to a single, separate lambda plaque on the bacterial lawn.

In data set [2] the test system is lambda repressor (cI) gene. Nature of the data set: Non-targeted mutagenesis of cI gene in lambda supF DNA. More on the design: species or system lambda phage. The note with it: for cI mutations per 1000 phage: lambda DNA 3 nM, oligonucleotide 3 μM, UVA 1.8 J/cm^2. The procedure:
(§1) Targeted mutagenesis was achieved by incubating pso-AG10 with lambda supF DNA in vitro to form triplex at positions 167 to 176 of the supF gene and bring the tethered psoralen into proximity with the targeted base pair at position 167 as shown in Table 1. The numbers in the table represent the frequency of mutations seen in either the supF gene or the cI gene in the lambda supF genome following the indicated treatment. The lambda DNA at 3 nM was incubated with or without a 1000-fold molar excess of the indicated oligonucleotides (3 μM) as described in FIG. 2.
(§2) UVA (365 nm) irradiation of selected samples was performed at a dose of 1.8 J/cm^2. A radiometer was used to measure lamp output (typical UVA irradiance of 5–7 mW/cm^2 at 320–400 nm). The DNA was packaged in vitro into phage particles, using the method of Hohn, Methods in Enzymology 68:299–309 (1979), and the phage particles were adsorbed to E. coli and grown as individual plaques to allow genetic analyses of the supF and cI genes.
(§3) Photoactivation of the psoralen generated a DNA adduct, and in vitro packaging of the psoralen-AG10. The lambda supF DNA complex allowed growth of the phage in bacteria to fix the adduct into a mutation. The phage particles were grown as individual plaques on a bacterial lawn to detect targeted mutagenesis in the supF gene and to measure the extent of non-targeted mutagenesis by screening for the function of an unrelated gene, the lambda repressor (cI) gene. Mutations in these genes yield colorless plaques among blue ones and clear plaques among turbid ones, respectively.

Data set [3] relates to supF gene in lambda supF DNA. Nature of the data set: Targeted mutagenesis of supF gene in lambda supF DNA (in vitro packaging, plaques on E. coli). The note with it: for supF mutations per 1000 phage: lambda DNA 3 nM; for supF mutation frequency: plus UVA 1.8 J/cm^2. The procedure:
as §1, §2, §3

In data set [4] the test system is supF gene within the SV40 vector pSP189. Nature of the data set: Hinf I restriction enzyme protection assay, SV40 vector DNA target. It counts as binding. The note with it: vector 50 nM. The method, then:
The binding and irradiation were carried out as described above, except that pSP189 was used as the supF target at a concentration of 50 nM and psoralen-AG10 was added at ratios of oligomer to vector of from 1:1 to 1000:1. Irradiation and gel conditions were as described above.
Similar experiments were performed to assay for site-specific binding of psoralen-AG10 to bp 167–176 in the supF gene within the SV40 vector itself. In these experiments, varying ratios of oligonucleotide to vector DNA were employed in order to examine basic parameters of the triplex binding to the viral genome. […] Binding of psoralen-AG10 as a triple strand to bp 167–176 of the supF gene within the SV40 vector was assayed by examining protection from Hinf I digestion at bp 164–168, as diagrammed in FIG. 4. The SV40 vector containing the supF target gene (50 nM) was incubated with psoralen-AG10 at ratios of oligomer to vector of from 1:1 to 1000:1, irradiated with 1.8 J/cm^2 of UVA, digested with Hinf I, and run on a 4.5% Nusieve gel. Because the sequences flanking the supF gene in the SV40 DNA differ from those in the PCR fragment, and since there are multiple Hinf I sites in SV40, the pattern of bands is more complex.

Where [5] appears, read: oligonucleotide 3 μM (1000-fold molar excess), UVA 1.8 J/cm^2.

“pso-^5′GGGGGAAGGA^3′ (DNA NGGGGGAAGGA; psoralen conjugated at 5' end, further chemistry not given here) [pso-GA10, reference compound]”: the “Position of supF mutations relative to targeted base pair 167” value in data set [1] was “Neither of the two mutations induced by the reverse oligomer, pso-GA10, were found to occur at base pair 167”. Moreover, in data set [2], the “cI mutations per 1000 phage” value is 0.019 (9/483,475) per 1000 phage. For the same substance, the “supF mutations per 1000 phage” value in data set [3] (setting [5]) is 0.004 (2/504.198) per 1000 phage. In data set [3] (plus UVA), the “Difference between supF and cI mutation frequency” value worked out at 5 fold; the “Fold lower frequency of supF mutations than pso-AG10” value came to 582 fold; the “Mutagenesis relative to background (untreated lambda DNA)” value is “barely above background”. Also, the supF mutation frequency in data set [3] worked out at 0.0004%.
With “4′-hydroxymethyl-4,5′,8-trimethylpsoralen-^5′AGGAAGGGGG^3′ (DNA NAGGAAGGGGG; 4'-hydroxymethyl-4,5',8-trimethylpsoralen conjugated at 5' end, further chemistry not given here) [pso-AG10]”, the “Share of sequenced supF mutations that are the T:A to A:T transversion at targeted base pair 167” value in data set [1] (25 mutants) was 56%. In addition, the “Position of supF mutations relative to targeted base pair 167” value in data set [1] is listed as “All except one of the 25 mutations produced by pso-AG10 is at or near the targeted T:A base pair at position 167; also recorded: almost all were targeted by the triplex-forming oligonucleotide”. Besides, in data set [2], the “cI mutations per 1000 phage” value was 0.024 (28/1,162,000) per 1000 phage. Moreover, the cI mutation frequency in data set [2] (plus UVA 1.8 J/cm^2) stood at 0.0024%. Besides, the “Hinf I protection at the targeted site” value is “only partial protection” in data set [4] (oligomer to vector 1:1, UVA 1.8 J/cm^2); “only partial protection” in data set [4] (oligomer to vector 2:1, UVA 1.8 J/cm^2); “almost complete” in data set [4] (oligomer to vector 10:1, UVA 1.8 J/cm^2); “near complete protection” in data set [4] (oligomer to vector 100:1, UVA 1.8 J/cm^2); “near complete protection” in data set [4] (oligomer to vector 1000:1, UVA 1.8 J/cm^2). Further, the “supF mutations per 1000 phage” value was 2.33 (263/112.872) per 1000 phage in data set [3] (setting [5]) and <0.014 (0/69.000) per 1000 phage in data set [3] (oligonucleotide 3 μM, no UVA). Besides, in data set [3] (no UVA), the “supF mutagenesis without UVA” value was “No significant mutagenesis”. Further, the “Difference between supF and cI mutation frequency” value in data set [3] (plus UVA) is listed as “approximately 100 fold”. Also, the “Specificity of targeted mutagenesis considering target size of cI (765 bp) and supF (184 bp)” value in data set [3] (plus UVA) is listed as not above 500 fold. For the same substance, in data set [3], the supF mutation frequency came to 0.233%.
